For five compounds, IC50 results are on record in patent publication US4518779A, “1,2,3,4-Tetrahydro-1-aminomethyl-4-phenyl isoquinolines” (Pennwalt Corporation, priority 1982, dated 1985).

Where a name gives a salt, the structure may show the parent alone. Read-outs that look alike come from different tables or passages of the source.

This assay addresses [^3 H]-mepyramine binding in brain homogenates (Rattus norvegicus, UniProt P31390). The experiment in a line: biochemical. Particulars: read-out: (^3 H)mepyramine rating: molar concentration required to inhibit by 50% the binding of [^3 H]mepyramine.
Where [1] appears, read: in vitro, brain homogenates, smaller numbers indicate greater potency.

Sequence of [^3 H]-mepyramine binding in brain homogenates (P31390 whole entry): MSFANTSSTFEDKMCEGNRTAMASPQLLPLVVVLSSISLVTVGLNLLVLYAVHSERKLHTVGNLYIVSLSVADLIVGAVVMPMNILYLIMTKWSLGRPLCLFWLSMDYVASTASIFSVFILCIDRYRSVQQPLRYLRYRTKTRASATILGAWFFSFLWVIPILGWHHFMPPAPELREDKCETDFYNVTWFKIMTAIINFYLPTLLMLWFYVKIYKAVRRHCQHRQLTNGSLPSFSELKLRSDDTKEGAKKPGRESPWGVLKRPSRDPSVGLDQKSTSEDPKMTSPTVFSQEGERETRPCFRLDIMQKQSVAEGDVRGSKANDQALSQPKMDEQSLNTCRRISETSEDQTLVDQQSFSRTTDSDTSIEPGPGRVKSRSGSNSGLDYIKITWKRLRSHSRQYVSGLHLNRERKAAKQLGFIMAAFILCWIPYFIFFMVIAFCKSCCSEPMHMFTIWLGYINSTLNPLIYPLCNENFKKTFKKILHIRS

As for `CNC[C@@H]1NC[C@H](c2ccccc2)c2ccccc21` (relative stereo) [Example 1 cis form, cis-1,2,3,4-tetrahydro-1-methylaminomethyl-4-phenylisoquinoline dihydrochloride], the IC50 stood at 3500 nM. Same read-out and setting: the result for `CNC[C@@H]1NC[C@@H](c2ccccc2)c2ccccc21` (relative stereo) [Example 1 trans form, trans-1,2,3,4-tetrahydro-1-methylaminomethyl-4-phenylisoquinoline dihydrochloride] reads 78 nM.

As to `CN(C)C[C@@H]1NC[C@H](c2ccccc2)c2ccccc21` (relative stereo) [Example 2, 1,2,3,4-tetrahydro-1-dimethylaminomethyl-4-phenylisoquinoline dihydrochloride], the IC50 under setting [1] is 2800 nM. Still for that read-out and setting: the figure for `CN(C)C[C@H]1c2ccccc2[C@@H](c2ccccc2)CN1C` (relative stereo) [Example 3, 1,2,3,4-tetrahydro-2-methyl-1-dimethylaminomethyl-4-phenylisoquinoline dihydrochloride] is 1800 nM; for `CCNC[C@@H]1NC[C@H](c2ccccc2)c2ccccc21` (relative stereo) [Example 4, 1,2,3,4-tetrahydro-1-(ethylamino)methyl-4-phenylisoquinoline dihydrochloride] it is above 1000 nM.
